“And” between values parts separate entries of the source, which are not always exact repeats. Equal values may be shown once.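 Dose response: 5 concentrations. Exposure: 48 h. Format: 96-well plates. Endpoint: linear interpolation; highest concentration if not reached. GI50 marks 50% less growth.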 The source made the active and inactive calls. No stated cut-off is given here; in the data, active = GI50 up to about 1.1 µM and inactive = higher.
Legend:
Assay in all cases: inhibition of tumour cell growth, NCI panel, 48 h
786-0 = tested on: 786-0
A498 = tested on: A498
A549 = tested on: A549
ACHN = tested on: ACHN
CAKI-1 = tested on: CAKI-1
CCRF-CEM = tested on: CCRF-CEM
COLO 205 = tested on: COLO 205
DU-145 = tested on: DU-145
EKVX = tested on: EKVX
HCC 2998 = tested on: HCC 2998
HCT-15 = tested on: HCT-15
HL-60 = tested on: HL-60
HOP-62 = tested on: HOP-62
HOP-92 = tested on: HOP-92
HT-29 = tested on: HT-29
Hs-578T = tested on: Hs-578T
IGROV-1 = tested on: IGROV-1
K562 = tested on: K562
KM12 = tested on: KM12
M14 = tested on: M14
MCF7 = tested on: MCF7
MDA-MB-231 = tested on: MDA-MB-231
MDA-MB-435 = tested on: MDA-MB-435
MDA-N = tested on: MDA-N
MOLT-4 = tested on: MOLT-4
NCI-H226 = tested on: NCI-H226
NCI-H23 = tested on: NCI-H23
NCI-H460 = tested on: NCI-H460
NCI-H522 = tested on: NCI-H522
NCI/ADR-RES = tested on: NCI/ADR-RES
OVCAR-3 = tested on: OVCAR-3
OVCAR-4 = tested on: OVCAR-4
OVCAR-5 = tested on: OVCAR-5
OVCAR-8 = tested on: OVCAR-8
PC-3 = tested on: PC-3
RPMI-8226 = tested on: RPMI-8226
SF-268 = tested on: SF-268
SF-295 = tested on: SF-295
SK-MEL-28 = tested on: SK-MEL-28
SK-MEL-2 = tested on: SK-MEL-2
SK-MEL-5 = tested on: SK-MEL-5
SK-OV-3 = tested on: SK-OV-3
SN12C = tested on: SN12C
SNB-19 = tested on: SNB-19
SNB-75 = tested on: SNB-75
SR = tested on: SR
SW-620 = tested on: SW-620
T47D = tested on: T47D
TK-10 = tested on: TK-10
U-251 = tested on: U-251
UACC-257 = tested on: UACC-257
UACC-62 = tested on: UACC-62
UO-31 = tested on: UO-31
BT-549 = tested on: BT-549
LOX IMVI = tested on: LOX IMVI
Malme-3M = tested on: Malme-3M
RXF 393 = tested on: RXF 393
SF-539 = tested on: SF-539
HCT-116 = tested on: HCT-116

## COC1/C=C/C(C)C(C(C)C(OC)C(C)CCC(=O)C(C)C(CC(=O)O)OC)OC(=O)/C=C/C=C(\C)CC(OC)CC2=CC(=O)O[C@H](C2)C(C)C(OC)CC(OC)/C=C/C(C)C(OC)C1 (stereo not given in full)
786-0
  GI50: 286 nM (active)
A498
  GI50: 240 nM (active)
A549
  GI50: 299 nM (active)
ACHN
  GI50: 562 nM (active)
CAKI-1
  GI50: 62.1 nM (active)
CCRF-CEM
  GI50: 191 nM (active)
COLO 205
  GI50: 97.7 nM (active)
DU-145
  GI50: 548 nM (active)
EKVX
  GI50: 396 nM (active)
HCC 2998
  GI50: 2620 nM (inactive)
HCT-15
  GI50: 885 nM
HL-60
  GI50: 118 nM (active)
HOP-62
  GI50: 450 nM (active)
HOP-92
  GI50: 124 nM (active)
HT-29
  GI50: 916 nM (active)
Hs-578T
  GI50: 75.9 nM (active)
IGROV-1
  GI50: 78.3 nM (active)
K562
  GI50: 1790 nM (inactive)
KM12
  GI50: 452 nM (active)
M14
  GI50: 222 nM (active)
MCF7
  GI50: 439 nM (active)
MDA-MB-231
  GI50: 450 nM (active)
MDA-MB-435
  GI50: 265 nM (active)
MDA-N
  GI50: 841 nM (active)
MOLT-4
  GI50: 1460 nM (inactive)
NCI-H226
  GI50: 543 nM (active)
NCI-H23
  GI50: 879 nM (active)
NCI-H460
  GI50: 195 nM (active)
NCI-H522
  GI50: 25.9 nM (active)
NCI/ADR-RES
  GI50: 2.66 µM (inactive)
OVCAR-3
  GI50: 1070 nM (active)
OVCAR-4
  GI50: 275 nM (active)
OVCAR-5
  GI50: 1020 nM (active)
OVCAR-8
  GI50: 1140 nM (inactive)
PC-3
  GI50: 380 nM (active)
RPMI-8226
  GI50: 219 nM (active)
SF-268
  GI50: 54.8 nM (active)
SF-295
  GI50: 258 nM (active)
SK-MEL-28
  GI50: 101 nM (active)
SK-MEL-2
  GI50: 265 nM (active)
SK-MEL-5
  GI50: 455 nM (active)
SK-OV-3
  GI50: 695 nM (active)
SN12C
  GI50: 2960 nM (inactive)
SNB-19
  GI50: 441 nM (active)
SNB-75
  GI50: 7.46 nM (active)
SR
  GI50: 385 nM (active)
SW-620
  GI50: 348 nM (active)
T47D
  GI50: 1160 nM (inactive)
TK-10
  GI50: 433 nM (active)
U-251
  GI50: 195 nM (active)
UACC-257
  GI50: 449 nM (active)
UACC-62
  GI50: 315 nM (active)
UO-31
  GI50: 458 nM (active)

## c1ccc(P(CCP(CCP(c2ccccc2)c2ccccc2)c2ccccc2)CCP(c2ccccc2)c2ccccc2)cc1 (stereo not given)
786-0
  GI50: 1820 nM (inactive)
A498
  GI50: > 10 µM (inactive) and > 8.65 µM (inactive)
BT-549
  GI50: > 10000 nM (inactive)
CCRF-CEM
  GI50: 1230 nM (inactive)
DU-145
  GI50: > 9160 nM (inactive)
HCC 2998
  GI50: 2060 nM (inactive)
HCT-15
  GI50: 9770 nM
HL-60
  GI50: 630 nM (active)
HOP-62
  GI50: > 10000 nM (inactive)
Hs-578T
  GI50: 3850 nM (inactive)
K562
  GI50: 1280 nM (inactive)
LOX IMVI
  GI50: 1510 nM (inactive)
MCF7
  GI50: 1670 nM (inactive)
MOLT-4
  GI50: 1410 nM (inactive)
Malme-3M
  GI50: > 10000 nM (inactive)
NCI-H226
  GI50: > 5220 nM (inactive)
NCI-H23
  GI50: > 5380 nM (inactive)
NCI-H460
  GI50: 1720 nM (inactive)
NCI-H522
  GI50: 2690 nM (inactive)
NCI/ADR-RES
  GI50: > 10 µM (inactive) and > 5.58 µM (inactive)
OVCAR-4
  GI50: 7330 nM (inactive)
OVCAR-5
  GI50: > 5450 nM (inactive)
RPMI-8226
  GI50: 1680 nM (inactive)
RXF 393
  GI50: > 5600 nM (inactive)
SF-539
  GI50: > 6250 nM (inactive)
SK-MEL-2
  GI50: 9440 nM (inactive)
SK-OV-3
  GI50: > 10000 nM (inactive)
SR
  GI50: 1100 nM (active)
SW-620
  GI50: 5050 nM (inactive)
T47D
  GI50: 2120 nM (inactive)
TK-10
  GI50: > 10000 nM (inactive)
UACC-257
  GI50: > 10000 nM (inactive)
UACC-62
  GI50: 6550 nM (inactive)
UO-31
  GI50: > 10 µM (inactive) and > 6.82 µM (inactive)

## COc1cc2c(/C=C3/C(=O)Nc4ccccc43)c(Cl)n(Cc3ccc(Cl)cc3)c2cc1C
786-0
  GI50: 323 nM (active)
A498
  GI50: 733 nM (active)
A549
  GI50: 366 nM (active)
ACHN
  GI50: 324 nM (active)
BT-549
  GI50: 382 nM (active)
CAKI-1
  GI50: 263 nM (active)
CCRF-CEM
  GI50: 290 nM (active)
COLO 205
  GI50: 256 nM (active)
DU-145
  GI50: 306 nM (active)
EKVX
  GI50: 1180 nM (inactive)
HCC 2998
  GI50: 134 nM (active)
HCT-116
  GI50: 264 nM (active)
HCT-15
  GI50: 242 nM
HL-60
  GI50: 373 nM (active)
HOP-62
  GI50: 237 nM (active)
HOP-92
  GI50: 11800 nM (inactive)
HT-29
  GI50: 296 nM (active)
Hs-578T
  GI50: 401 nM (active)
IGROV-1
  GI50: 538 nM (active)
K562
  GI50: 365 nM (active)
KM12
  GI50: 330 nM (active)
LOX IMVI
  GI50: 344 nM (active)
M14
  GI50: 296 nM (active)
MCF7
  GI50: 491 nM (active)
MDA-MB-231
  GI50: 216 nM (active)
MDA-MB-435
  GI50: 193 nM (active)
MOLT-4
  GI50: 264 nM (active)
Malme-3M
  GI50: 843 nM (active)
NCI-H226
  GI50: 336 nM (active)
NCI-H23
  GI50: 240 nM (active)
NCI-H460
  GI50: 359 nM (active)
NCI-H522
  GI50: 343 nM (active)
NCI/ADR-RES
  GI50: 0.225 µM (active)
OVCAR-3
  GI50: 207 nM (active)
OVCAR-4
  GI50: 632 nM (active)
OVCAR-5
  GI50: 656 nM (active)
OVCAR-8
  GI50: 299 nM (active)
PC-3
  GI50: 608 nM (active)
RPMI-8226
  GI50: 270 nM (active)
RXF 393
  GI50: 339 nM (active)
SF-268
  GI50: 675 nM (active)
SF-295
  GI50: 333 nM (active)
SF-539
  GI50: 270 nM (active)
SK-MEL-28
  GI50: 386 nM (active)
SK-MEL-2
  GI50: 1160 nM (inactive)
SK-MEL-5
  GI50: 384 nM (active)
SK-OV-3
  GI50: 305 nM (active)
SN12C
  GI50: 226 nM (active)
SNB-19
  GI50: 430 nM (active)
SNB-75
  GI50: 237 nM (active)
SR
  GI50: 209 nM (active)
SW-620
  GI50: 472 nM (active)
T47D
  GI50: 520 nM (active)
TK-10
  GI50: 565 nM (active)
U-251
  GI50: 307 nM (active)
UACC-257
  GI50: 378 nM (active)
UACC-62
  GI50: 280 nM (active)
UO-31
  GI50: 826 nM (active)
